Assay results as given in patent US20240400986A1, “MEMBRANE BOUND COMPOSITIONS AND METHODS RELATING TO SAME” (FLAGSHIP PIONEERING INNOVATIONS VII, LLC, priority 2021, published 2024).
Peptide text beside a SMILES is read from it. * marks the point of attachment. Cbz = O=C(OCc1ccccc1)*

Assays:
neuronal cells [1] = experiment: Live microscopy of neuronal gigasome generation; type: cell-based, human; details: 0.1 M MG-132; live time-lapse microscopy; compared to DMSO control
Protocol: Cells were stained with Hoechst 33342 to visualize nuclei and nuclear material, CellTracker Green to visualize cytoplasm, and MitoTracker Deep Red to visualize mitochondria. Gigasome production was then induced with various drugs as described in Example 1. Cell cultures were imaged every 15-30 minutes under a time lapse for up to 48 hours (FIGS. 1A and 1B). For image analysis, ImageJ and Zeiss ZEN Blue software was used. Gigasomes were identified and quantified as distinct circular/spherical vesicles in the extracellular space of the neurons, between 1-20 μm in diameter. Gigasomes were identified based on having positive neuronal cytoplasmic signal and negative Hoechst 33342 signal. The presence of mitochondria in gigasomes was measured via respective fluorescent signal.
Time-lapse montages were produced and edited to show the formation of gigasomes from parent neuronal cells after treatment with […] MG-132 (FIGS. 1A and 1B). Gigasomes and parent cells were identified and tracked throughout the duration of the time lapse. In some experiments, gigasomes produced by parent cells in MG-132 treatment groups were identified.

neuronal cells [2] = experiment: Gigasome-mediated extraction of exogenously added Tau fibrils (live plated cells and culture media); type: cell-based, human
Protocol: P301S mutant Tau fibrils conjugated to the fluorescent probe ATTO 488 (Table 12) were resuspended at 50 nM in reduced serum-containing media and added to half of the cell-containing wells for 3 hours at 37° C. Following Tau fibrils uptake, cells were trypsinized to remove excess Tau fibrils attached to the cell surface, labeled with Hoechst 33342 to visualize nuclei and CellTracker Orange to visualize the cytoplasm and plated in a new poly-L-lysine-coated 24-well glass bottom plates. Cells were allowed to attach (2-3 hours), before addition of 0.1 μM MG-132 in reduced serum-containing media for additional 18-20 h.
For analysis, 10-15×16-bit images per well were captured with a 20× objective and processed for analysis of gigasome production. Composite images were separated in the different channels. The background was subtracted from the green Tau fibrils cargo channel, as described Example 13.a and the signal thresholded using the “Yen” autothreshold algorithm. The cargo signal (integrated density) in the green channel was measured and normalized to the number of nuclei counted in each field in the Tau-F conditions. […] The quantity or distribution of objects obtained from the particle analysis was divided by the number of cells counted in each field to obtain a normalized quantity or distribution. […]

SMILES: CC(C)C[C@@H](C=O)NC(=O)[C@H](CC(C)C)NC(=O)[C@H](CC(C)C)NC(=O)OCc1ccccc1 [MG-132, reference compound] (Cbz-Leu-Leu-Leu-aldehyde)
- gigasome production (neuronal cells [1]): increase
- gigasomes per 1000 cells (neuronal cells [2]; gigasomes harvested from cell culture media (FIG. 8E)): approximately 4.5 per 1000 cells
- gigasomes per 1000 cells (neuronal cells [2]; plated live cells, Tau fibrils 50 nM 3 h, MG-132 0.1 μM 18-20 h (FIG. 8C)): approximately 325 per 1000 cells
